Laboratory results taken from article PMC5269720, “Conformational Change of a Tryptophan Residue in BtuF Facilitates Binding and Transport of Cobinamide by the Vitamin B12 Transporter BtuCD-F” (Scientific Reports, 2017).
Read-outs that look alike come from different tables or passages of the source.

Experiments:
[1] = molecular target: T1, BtuFfluo W66Y (E.c. BtuF) (Escherichia coli, UniProt P37028, Q145C/W66Y); assay: Fluorescence quenching substrate binding assay with BtuFfluo, W66Y mutant; details: for Kd: BtuFfluo 5 nM, substrate 0.02 nM to 33 μM, 30 min at 10 °C, mean and S.E.M., n = 12
T1 construct: His6; made in house
Experimental: (§1) For binding assays BtuF was labeled at a cysteine residue in the backbone helix with fluorescein-5-maleimide (Thermo scientific 62245) as described previously. In brief, 50 to 100 μM BtuF Q145C (Invitrogen QuickChange) was labeled with a 10-fold molar excess of fluorescein-5-maleimide (BtuFfluo). The reaction was run over night at 4 °C in the presence of 1 mM TCEP to prevent oxidation and stopped with 5 mM β-mercaptoethanol. Excess label was removed by desalting with PD10 columns and the protein was further purified by size exclusion chromatography. Protein concentration was determined by Bradford assay using BSA for calibration and the labeling efficiency was determined by measuring the absorbance at 494 nm. The labeled protein was flash frozen in liquid nitrogen and stored at −80 °C until the day of use. Final storage buffer was 50 mM HEPES 7, 200 mM NaCl, 0.5 mM EDTA-NaOH 8 and 10% v/v Glycerol.
(§2) The assay is based on monitoring the ligand-induced change in emission of fluorescein attached to BtuF (BtuFfluo). A similar approach has been used to determine the affinity of MBP for maltose in the presence of various sAB[40][41][42]. BtuFfluo at 5 nM was incubated with a range of substrate concentrations from 0.02 nM to 33 μM. After incubation for 30 min at 10 °C the fluorescence intensity was recorded at an excitation wavelength of 485 nm and emission at 528 nm. The maximum signal was recorded in the absence of substrate and decreased with increasing substrate concentration. The difference of the maximum intensity minus the signal at a certain substrate concentration was plotted against the substrate concentration. One site –specific binding in Prism GraphPad was used to fit the data for KD determination (GraphPad Prism version 6.04 for Windows, GraphPad Software, La Jolla California USA, www.graphpad.com”). Binding buffer composition was 50 mM Tris 7.5 and 200 mM NaCl.

[2] = molecular target: T2, BtuFfluo W66E (E.c. BtuF) (Escherichia coli, UniProt P37028, Q145C/W66E); assay: Fluorescence quenching substrate binding assay with BtuFfluo, W66E mutant
T2 construct: His6; made in house
Experimental: as §1, §2

[3] = molecular target: T3, BtuFfluo W66H (E.c. BtuF) (Escherichia coli, UniProt P37028, Q145C/W66H); assay: Fluorescence quenching substrate binding assay with BtuFfluo, W66H mutant; details: for Kd: BtuFfluo 5 nM, substrate 0.02 nM to 33 μM, 30 min at 10 °C, mean and S.E.M., n = 12
T3 construct: His6; made in house
Experimental: as §1, §2

[4] = molecular target: T4, BtuFfluo W66R (E.c. BtuF) (Escherichia coli, UniProt P37028, Q145C/W66R); assay: Fluorescence quenching substrate binding assay with BtuFfluo, W66R mutant; details: for decrease in affinity compared to wt: W66R (arginine) versus wild type BtuF; for Kd: BtuFfluo 5 nM, substrate 0.02 nM to 33 μM, 30 min at 10 °C, mean and S.E.M., n = 9
T4 construct: His6; made in house
Experimental: as §1, §2

[5] = tested on: wild type BtuCD with BtuF W66 mutants (W66A, W66R, W66E, W66F); assay: In vitro substrate transport assay with liposome reconstituted wild type BtuCD and BtuF W66 mutants; format: biochemical, Escherichia coli; details: 4 mg/ml proteoliposomes (~0.5 μM total BtuCD), 1 μM BtuF, 2 mM ATP, 15 μM cobinamide or cyanocobalamin
Experimental: (§3) BtuCD was expressed, purified and reconstituted as described previously with some modifications regarding buffer composition and reconstitution procedure. In brief, BtuCD with an N-terminal His10-tag on BtuC was purified by IMAC and desalted into a buffer of the following composition: 50 mM Tris 7.5, 500 mm NaCl, 0.5 mM EDTA-NaOH 8 and 0.1% w/v LDAO. Purified protein was used directly for reconstitution into liposomes consisting of E. coli Polar lipids and α-Phosphatidylcholine (3:1 weight ratio, Avanti Polar Lipids 100600 C and 840051 C). Liposomes were destabilized with 0.3% w/v Triton X-100 for 20 min at RT. Protein was added with a ratio of 50:1 LPR and incubated for 90 min at RT. Detergent was removed by BioBeads (40 mg/ml mixture) in 4 steps and proteoliposomes were stored at −80 °C until the day of experiment. The protein concentration within the liposomes was determined by Amido black protein assay using BSA for the calibration curve.
The amount of right-side-in oriented BtuCD in liposomes was determined as described previously for ABC type II importer HmuUV with minor modifications. Briefly, liposome-reconstituted BtuCD was incubated with 1 μM fluorescently labeled BtuF (BtuFfluo) for 30 min at RT followed by a spin to remove excess BtuFfluo. The pellet was washed and resuspended at 1.25 mg/ml liposome concentration. The amount of BtuFfluo associated with the liposomes was determined by measuring the fluorescence signal at an excitation wavelength of 485 nm and an emission wavelength of 516 nm. Unspecific BtuFfluo interaction with liposomes was measured using empty liposomes.
For the substrate transport assays radiolabeled ^14C-cyano-aquo-cobinamide (^14CN-Cbi, labeled in house) or ^57Co-cyanocobalamin (^57Co-Cbl, MP Biomedicals 06B-430000, 10.5 uCi) was used. […] The radioactivity trapped on the filters was measured either by a β counter using LCS in case of ^14CN-Cbi or a γ counter in case of ^57Co-Cbl. Initial transport rates were determined by using linear regression in PrismGraphpad.

[6] = molecular target: T5, BtuFfluo W66F (E.c. BtuF) (Escherichia coli, UniProt P37028, Q145C/W66F); assay: Fluorescence quenching substrate binding assay with BtuFfluo, W66F mutant; details: BtuFfluo 5 nM, substrate 0.02 nM to 33 μM, 30 min at 10 °C, mean and S.E.M., n = 12
T5 construct: His6; made in house
Experimental: as §1
The assay is based on monitoring the ligand-induced change in emission of fluorescein attached to BtuF (BtuFfluo). A similar approach has been used to determine the affinity of MBP for maltose in the presence of various sAB[40][41][42]. […] After incubation for 30 min at 10 °C the fluorescence intensity was recorded at an excitation wavelength of 485 nm and emission at 528 nm. The maximum signal was recorded in the absence of substrate and decreased with increasing substrate concentration. […]

[7] = molecular target: T6, wild type BtuFfluo (E.c. BtuF) (Escherichia coli, UniProt P37028, Q145C); assay: Fluorescence quenching substrate binding assay with BtuFfluo, wild type; details: BtuFfluo 5 nM, substrate 0.02 nM to 33 μM, 30 min at 10 °C, mean and S.E.M., n = 12
T6 construct: His6; made in house
Experimental: as §1, §2

[8] = molecular target: T7, BtuFfluo W66A (E.c. BtuF) (Escherichia coli, UniProt P37028, Q145C/W66A); assay: Fluorescence quenching substrate binding assay with BtuFfluo, W66A mutant; details: BtuFfluo 5 nM, substrate 0.02 nM to 33 μM, 30 min at 10 °C, mean and S.E.M., n = 12
T7 construct: His6; made in house
Experimental: as §1, §2

[9] = molecular target: T8, wild type BtuCD-F (Escherichia coli, UniProt P06609+P37028); assay: In vitro substrate transport assay with liposome reconstituted BtuCD and wild type BtuF; format: biochemical
T8 construct: His10 (N); made in house
Experimental: as §3
The amount of right-side-in oriented BtuCD in liposomes was determined as described previously for ABC type II importer HmuUV with minor modifications. […] The amount of BtuFfluo associated with the liposomes was determined by measuring the fluorescence signal at an excitation wavelength of 485 nm and an emission wavelength of 516 nm. Unspecific BtuFfluo interaction with liposomes was measured using empty liposomes. […]

[10] = molecular target: T9, BtuFfluo W66L (E.c. BtuF) (Escherichia coli, UniProt P37028, Q145C/W66L); assay: Fluorescence quenching substrate binding assay with BtuFfluo, W66L mutant; details: for Kd: BtuFfluo 5 nM, substrate 0.02 nM to 33 μM, 30 min at 10 °C, mean and S.E.M., n = 12
T9 construct: His6; made in house
Experimental: as §1, §2

T7 sequence (P37028 23-266 W66A/Q145C): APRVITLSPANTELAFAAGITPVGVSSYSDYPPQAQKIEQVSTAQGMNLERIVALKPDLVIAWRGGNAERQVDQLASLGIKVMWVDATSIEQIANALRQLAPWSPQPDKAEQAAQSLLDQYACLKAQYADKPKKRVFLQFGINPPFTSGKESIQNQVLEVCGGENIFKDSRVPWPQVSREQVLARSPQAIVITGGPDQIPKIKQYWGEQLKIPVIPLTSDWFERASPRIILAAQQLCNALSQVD
T9 sequence (P37028 23-266 W66L/Q145C): as the sequence (P37028 23-266 W66A/Q145C) above, with A44L counted along it
T6 sequence (P37028 23-266 Q145C): as the sequence (P37028 23-266 W66A/Q145C) above, with A44W counted along it
T1 sequence (P37028 23-266 W66Y/Q145C): as the sequence (P37028 23-266 W66A/Q145C) above, with A44Y counted along it
T3 sequence (P37028 23-266 W66H/Q145C): as the sequence (P37028 23-266 W66A/Q145C) above, with A44H counted along it
T2 sequence (P37028 23-266 W66E/Q145C): as the sequence (P37028 23-266 W66A/Q145C) above, with A44E counted along it
T4 sequence (P37028 23-266 W66R/Q145C): as the sequence (P37028 23-266 W66A/Q145C) above, with A44R counted along it
T8 sequence (P06609 whole entry): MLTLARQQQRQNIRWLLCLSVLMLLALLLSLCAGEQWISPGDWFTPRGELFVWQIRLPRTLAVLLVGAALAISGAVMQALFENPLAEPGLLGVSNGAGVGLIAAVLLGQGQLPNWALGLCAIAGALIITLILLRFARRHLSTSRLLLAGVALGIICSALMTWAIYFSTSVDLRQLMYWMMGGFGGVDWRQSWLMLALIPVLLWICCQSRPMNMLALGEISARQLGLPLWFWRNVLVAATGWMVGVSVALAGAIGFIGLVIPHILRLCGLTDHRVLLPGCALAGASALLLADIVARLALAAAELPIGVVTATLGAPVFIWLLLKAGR
T8 sequence (P37028 23-266): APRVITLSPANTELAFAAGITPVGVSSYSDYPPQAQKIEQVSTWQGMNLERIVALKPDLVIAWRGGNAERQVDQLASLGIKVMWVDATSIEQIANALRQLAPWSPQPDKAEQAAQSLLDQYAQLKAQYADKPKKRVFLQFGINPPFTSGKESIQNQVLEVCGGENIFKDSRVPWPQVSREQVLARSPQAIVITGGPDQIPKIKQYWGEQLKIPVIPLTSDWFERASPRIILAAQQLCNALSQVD
T8 sequence (P06611 whole entry, further chain): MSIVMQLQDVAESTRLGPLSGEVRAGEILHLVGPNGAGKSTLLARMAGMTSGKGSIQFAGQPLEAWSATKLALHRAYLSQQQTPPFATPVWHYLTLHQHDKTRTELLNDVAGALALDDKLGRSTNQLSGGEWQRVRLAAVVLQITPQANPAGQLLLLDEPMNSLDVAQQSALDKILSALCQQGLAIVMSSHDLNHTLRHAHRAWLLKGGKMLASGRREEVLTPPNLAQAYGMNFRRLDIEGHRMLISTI
T5 sequence (P37028 23-266 W66F/Q145C): as the sequence (P37028 23-266 W66A/Q145C) above, with A44F counted along it

With `C/C1=C2/[N-][C@H]([C@H](CC(N)=O)[C@@]2(C)CCC(=O)NC[C@@H](C)O)[C@]2(C)N=C(/C(C)=C3N=C(/C=C4N=C1[C@@H](CCC(N)=O)C\4(C)C)[C@@H](CCC(N)=O)[C@]\3(C)CC(N)=O)[C@@H](CCC(N)=O)[C@]2(C)CC(N)=O.[Co+3]` [Cbi, cobinamide] the “reduced affinity compared to wt” value ([1]; W66Y (tyrosine) versus wild type BtuF) was 3 fold, the Kd ([1]; di-CN-Cbi, read-out: KD of Cbi) was 150 ± 30 nM and the “KD of Cbi” value ([2]; di-CN-Cbi, BtuFfluo 5 nM, substrate 0.02 nM to 33 μM, 30 min at 10 °C, mean and S.E.M., n = 12) was “low micromolar range”. For the same compound, the Kd ([2]; di-CN-Cbi, BtuFfluo 5 nM, substrate 0.02 nM to 33 μM, 30 min at 10 °C, mean and S.E.M., n = 12, read-out: KD of Cbi) was 2900 ± 800 nM, the “reduced affinity compared to wt” value ([3]; W66H (histidine) versus wild type BtuF) was “more than 10 fold” and the Kd ([3]; di-CN-Cbi, read-out: KD of Cbi) was 500 ± 100 nM. The “decrease in affinity compared to wt” value [4] was “more than 10 fold”, the Kd ([4]; di-CN-Cbi, read-out: KD of Cbi) was 800 ± 200 nM and the “effect of BtuF W66X substitution on in vitro transport rate” value (“effect of BtuF W66X substitution” below) [5] was “hardly affected”. For the same compound, the “effect of BtuF W66X substitution” value ([5]; listed as cobinamide) was “not influenced”, the Kd ([6]; di-CN-Cbi, read-out: KD of Cbi) was 30 ± 7 nM and the Kd ([7]; di-CN-Cbi, read-out: KD of Cbi) was 40 ± 10 nM. For the same compound, the “KD of Cbi” value ([8]; di-CN-Cbi) was “low micromolar range”, the Kd ([8]; di-CN-Cbi, read-out: KD of Cbi) was 1800 ± 800 nM and the initial transport rate ([9]; 14CN-Cbi, 4 mg/ml proteoliposomes (~0.5 μM total BtuCD), 1 μM BtuF, 15 μM cobinamide, 2 mM ATP, 22 °C, corrected for right-side-in oriented transporters, mean ± S.E.M., n = 6) was 0.7 ± 0.2 nmol Cbi/mg protein/min. The “in vitro turnover number for Cbi transport, slower than that of Cbl transport” value ([9]; calculated, Cbi versus Cbl transport by wild type BtuCD-F) was “approximately 1.5 fold”, the “reduced affinity compared to wt” value ([10]; W66L (leucine) versus wild type BtuF) was 3 fold and the Kd ([10]; di-CN-Cbi, read-out: KD of Cbi) was 120 ± 20 nM.

For cyanocobalamin [Cbl], the Kd ([1]; CN-Cbl, read-out: KD of Cbl) was 5.7 ± 1.7 nM, the Kd ([2]; CN-Cbl, BtuFfluo 5 nM, substrate 0.02 nM to 33 μM, 30 min at 10 °C, mean and S.E.M., n = 12, read-out: KD of Cbl) was 57 ± 15 nM and the “decrease in affinity compared to wt” value ([2]; W66E (glutamate) versus wild type BtuF) was ~ 7 fold. For the same compound, the Kd ([3]; CN-Cbl, read-out: KD of Cbl) was 5.5 ± 1.7 nM, the Kd ([4]; CN-Cbl, read-out: KD of Cbl) was 68 ± 13 nM and the “decrease in affinity compared to wt” value [4] was ~ 7 fold. For the same compound, the “effect of BtuF W66X substitution” value [5] was “not influenced”, the Kd ([6]; CN-Cbl, read-out: KD of Cbl) was 8 ± 1.9 nM and the “KD of Cbl” value ([7]; CN-Cbl) was “low nM range”. The Kd ([7]; CN-Cbl, read-out: KD of Cbl) was 9.1 ± 2.6 nM, the Kd ([8]; CN-Cbl, read-out: KD of Cbl) was 14 ± 4 nM and the Kd ([10]; CN-Cbl, read-out: KD of Cbl) was 15 ± 2 nM.
